Assay results published in patent US11034725B2, “Compositions and methods for treating cardiovascular disease” (Genentech, Inc., priority 2016, dated 2021).
Values joined by “and” are separate entries in the source; they are usually repeats but may differ in a detail not shown here. Identical values can stand only once. “Also recorded” adds a separate entry of the source. Bridge positions count the residues as written; N and C are the ends. Peptide text beside a SMILES is read from it.

Legend:
PCSK9Δhelix [1] = molecular target: T1, PCSK9Δhelix (Homo sapiens, UniProt Q8NBP7); test: Surface plasmon resonance biosensor-based affinity analysis (Example 4); format: binding; details: for Kd: Table 7, Target PCSK9Δhelix, SPR at 20° C., read-out: Kd
T1 construct: Human PCSK9 construct M1-Q692 with an engineered TEV site (residue deletion Y166, R167); made in house; host or cells: CHO

PCSK9 [2] = molecular target: T2, PCSK9 (Homo sapiens, UniProt Q8NBP7); test: PCSK9/EGF(A) TR-FRET binding assay
PCSK9Δhelix [3] = molecular target: T1, PCSK9Δhelix; test: PCSK9Δhelix/Ab20 TR-FRET binding assay; details: for IC50: TR-FRET, Example 7, read-out: PCSK9Δhelix/Ab20 IC50
His-EGF(A)-Fc = His-EGF(A)-Fc TR-FRET counterscreen; details: counterscreen, Example 7
PCSK9 [4] = molecular target: T2, PCSK9; test: Cell surface LDLR assay with HepG2 cells; format: cell-based; details: HepG2 cells; for EC50: 15 μg/mL PCSK9, 4 h, FACS; for surface LDLR levels restored: maximal restoration, percent of control without PCSK9
Protocol: HepG2 cells (ATCC; Manassas, Va.) were seeded into 48 well plates (Corning; Corning, N.Y.) at 1×10^5 cells per well in high glucose medium (DMEM, Gibco; Carlsbad, Calif.) containing 2 mM glutamine (Sigma), penicillin/streptomycin (Gibco) and 10% FBS (Sigma; St. Louis, Mo.) and incubated overnight. Then the medium was changed to DMEM containing 10% lipoprotein deficient serum (LPDS, Sigma). After 24 h, 15 μg/mL PCSK9 was incubated with peptides or Fab33 for 30 min, added to the cells and incubated at 37° C. for 4 h. Cells were rinsed with PBS and detached using Cell Dissociation Buffer in PBS (Gibco). After centrifugation, the resuspended cells were incubated with 1:20 anti LDLR antibody (Progen Biotechnik; Heidelberg, Germany) on ice for 10 min. The samples were then washed with PBS and incubated with 1:200 diluted goat anti mouse IgG (H+L) Alexa Fluor 488 (Invitrogen; Carlsbad, Calif.) on ice for 5 min. After two PBS washes, cells were re suspended in PBS containing 2.5 μg/mL of propidium iodide and analyzed on a dual laser flow cytometer (FACScan, Becton Dickinson; Franklin Lakes, N.J.). Relative fluorescence units (RFUs) were used to quantify LDLR expression levels on the HepG2 cell surface. Cell surface LDLR levels were expressed as percent of LDLR levels measured in the absence of PCSK9 (=control).
The effect of Compound 229 on PCSK9-mediated LDL receptor degradation was measured in a HepG2 cell assay as previously described (Zhang et al., J Biol Chem. 2014 Jan. 10; 289(2):942-55). Peptides at various concentrations were preincubated with 15 μg/mL PCSK9 in the presence of 0.5% DMSO for 30 min prior to the addition to cells. After a 4 h incubation, the cells were processed for measurements of LDL receptor surface levels by flow cytometry as described (Zhang et al., J Biol Chem. 2014 Jan. 10; 289(2):942-55) (FIG. 37).

PCSK9 [5] = molecular target: T2, PCSK9; test: Phage competition ELISA; format: binding; details: binding of peptide-displaying phage to PCSK9
Protocol: (§1) The sequences of selected clones were fused to the N-terminus of M13 major coat protein (p8) using Kunkel mutagenesis method (Kunkel et al., Methods Enzymol 154, 367-82). The resulting construct was transformed to E. Coli. XL1 blue, single colony was grown in 1 mL 2YT supplemented with 50 μg/mL carbenicillin, 10 μg/mL Tetracycline and M13 KO7 helper phage at 37° C. for 2 h, Kanamycin was added to final concentration of 25 μg/mL, growth was continued at 37° C. for 6 h. The culture was transferred to 30 mL 2YT supplemented with 50 μg/mL carbenicillin and 25 μg/mL kanamycin and grown at 37° C. overnight. The next day, the phage was harvested and purified using the standard protocol (Tonikian et al. Nat Protoc. 2007; 2(6):1368-86). The serially diluted phage solution was applied to the biotinylated PCSK9 and biotinylated PCSK9Δhelix that had been immobilized for 15 min on a 384-well MaxiSorp ImmunoPlate previously coated with 5 μg/mL NeutrAvidin and blocked with Block buffer. The plate was incubated at 4° C. for 1 h, washed 10 times with PT buffer (PBS, 0.05% Tween® 20). The bound phage was detected with anti-M13-HRP and the ELISA signal was read at OD450 nm. The background was ELISA signal that the phage directly bound to NeutrAvidin-coated plate. The data was plotted and the curve fitted with KaleidaGraph. Sub-saturating phage concentration that gave 80% of maximum binding signal was determined by the binding curve.
IC50 measurements were performed by mixing a fixed sub-saturating concentration of peptide-displaying phage with a serial dilution of synthetic peptides in PBT buffer. The mixture was added to plates coated with PCSK9 and PCSK9Δhelix and incubated for 1 h at room temperature. The plates were then washed 10 times with PBT buffer and the bound phage was detected by anti-M13-HRP. The data was plotted, curve fitted and IC50 derived by use of KaleidaGraph. All measurements were repeated 3 times independently.

PCSK9Δhelix [6] = molecular target: T1, PCSK9Δhelix; test: Phage competition ELISA; details: binding of peptide-displaying phage to PCSK9Δhelix
Protocol: as §1, with “The serially diluted phage solution was applied to the biotinylated PCSK9 and biotinylated PCSK9Δhelix that had been immobilized for 15 min on a 384-well MaxiSorp ImmunoPlate previously coated with 5 μg/mL NeutrAvidin and blocked with Block buffer. The plate was incubated at 4° C. for 1 h, washed 10 times with PT buffer (PBS, 0.05% Tween® 20).” left out, “The background was ELISA signal that the phage directly bound to NeutrAvidin-coated plate. The data was plotted and the curve fitted with KaleidaGraph.” left out
IC50 measurements were performed by mixing a fixed sub-saturating concentration of peptide-displaying phage with a serial dilution of synthetic peptides in PBT buffer. […] The plates were then washed 10 times with PBT buffer and the bound phage was detected by anti-M13-HRP. […]

LDLR ectodomain = molecular target: T3, LDLR ectodomain (Homo sapiens, UniProt P01130); details: biolayer interferometry, Lipari et al. 2012; read-out: Kd, binding to LDLR, previously reported; cited from earlier work
T3 construct: purchased R & D Systems

PCSK9 [7] = molecular target: T2, PCSK9; details: Zhang et al. 2014; cited from earlier work

Compound: Ac-TVFTSWEEYLDWVGSGDLMPWNLVRIGLLR-NH2 [Compound 20]
- Kd range for PCSK9Δhelix binding (PCSK9Δhelix [1]): sub-nanomolar range
- Kd (PCSK9Δhelix [1]): 0.366 nM
- inhibition in the PCSK9/EGF(A) binding assay (PCSK9 [2]): significantly improved relative to Pep2-8
- inhibition in the PCSK9Δhelix/Ab20 binding assay (PCSK9Δhelix [3]): low nanomolar concentrations
- IC50 (PCSK9Δhelix [3]): 1 nM
- IC50 (His-EGF(A)-Fc): > 50000 nM
- EC50 (PCSK9 [4]): 1000 to 5000 nM
- surface LDLR levels restored (PCSK9 [4]): 100%
- IC50 in phage competition ELISA (PCSK9 [5]; listed as Pep2-8_K9gvpep7): low nanomolar range; also recorded: single digit nanomolar range
- IC50 in phage competition ELISA (PCSK9Δhelix [6]): single digit nanomolar range

Compound: wildtype PCSK9: wildtype proprotein convertase subtilisin/kexin type 9
- Kd (LDLR ectodomain): 130 nM and 170 nM

Compound: Ac-TAFTSWEEYLDWV-NH2 [Pep2-8V2A]
- reduction of affinity for PCSK9 versus Pep2-8 (PCSK9 [7]): about 10 fold

Compound: CC[C@H](C)[C@@H]1NC(=O)[C@H](CCCNC(=N)N)NC(=O)[C@H](CCC(N)=O)NC(=O)[C@H](CC(C)C)NC(=O)[C@H](CC(N)=O)NC(=O)[C@H](Cc2c[nH]c3ccccc23)NC(=O)[C@@H]2CCCN2C(=O)[C@H](CC(C)C)NC(=O)[C@H](CCCNC(=N)N)NC(=O)[C@@H](NC(=O)CNC(=O)[C@H](CO)NC(=O)CNC(=O)[C@@H](NC(=O)[C@H](Cc2c[nH]c3ccccc23)NC(=O)[C@H](CC(=O)O)NC(=O)[C@H](CC(C)C)NC(=O)[C@H](Cc2ccc(O)cc2)NC(=O)[C@H](CCC(=O)O)NC(=O)[C@H](CCC(=O)O)NC(=O)[C@H](Cc2c[nH]c3ccccc23)NC(=O)[C@H](CO)NC(=O)[C@@H](NC(=O)[C@H](Cc2ccccc2)NC(=O)[C@@H](NC(=O)[C@@H](NC(C)=O)[C@@H](C)O)C(C)C)[C@@H](C)O)C(C)C)CSSC[C@@H](C(N)=O)NC(=O)[C@@H]2CCCN2C(=O)[C@H](CC(C)C)NC(=O)CNC1=O [Compound 19] (Ac-TVFTSWEEYLDWVGSGCRLPWNLQRIGLPC-NH2; disulfide 17-30)
- Kd range for PCSK9Δhelix binding (PCSK9Δhelix [1]): sub-nanomolar range
- Kd (PCSK9Δhelix [1]): 0.0989 nM
- inhibition in the PCSK9/EGF(A) binding assay (PCSK9 [2]): potent inhibitor
- IC50 (PCSK9 [2]; TR-FRET, Example 7, read-out: PCSK9/EGF(A) IC50): 9 nM
- inhibition in the PCSK9Δhelix/Ab20 binding assay (PCSK9Δhelix [3]): potent inhibitors
- IC50 (PCSK9Δhelix [3]): 2 nM
- IC50 (His-EGF(A)-Fc): > 50000 nM
- EC50 (PCSK9 [4]): ~500 nM
- surface LDLR levels restored (PCSK9 [4]): 100%
- IC50 in phage competition ELISA (PCSK9 [5]; listed as Pep2-8_K9gvpep4): low nanomolar range; also recorded: single digit nanomolar range
- IC50 in phage competition ELISA (PCSK9Δhelix [6]): single digit nanomolar range
